± gives the standard deviation of the reports.
With `*c1ccc(Cc2ccc(N3C(=O)CC(Nc4ccc(Cc5ccc(NC6CC(=O)N(*)C6=O)cc5)cc4)C3=O)cc2)cc1` (repeat unit) the glass transition temperature was 239.00 °C. With `*CC(*)(CC(=O)OC(C)C)C(=O)OC12CC3CC(C)(CC(C)(C3)C1)C2` (repeat unit) the glass transition temperature was 158.00 °C. Work on `*CC(*)c1ccc(B(Oc2ccc(-c3ccc(OC)cc3)c3cccnc23)c2ccc(C(C)(C)C)cc2)cc1` (repeat unit) yielded a glass transition temperature of 220.00 °C. Compound `*c1ccc(Oc2c(C)cc(C(c3cccnc3)c3cc(C)c(Oc4ccc(N5C(=O)CC(Nc6cccc(NC7CC(=O)N(*)C7=O)c6)C5=O)cc4)c(C)c3)cc2C)cc1` (repeat unit) has a glass transition temperature of 217.00 °C. `*SC(*)(F)F` (repeat unit) showed a glass transition temperature of -118.00 °C. For `*Sc1ccc(Sc2ccc(Sc3ccc(P(=O)(c4ccccc4)c4ccc(*)cc4)cc3)cc2)cc1` (repeat unit), the glass transition temperature was 175.00 °C. `*c1ccc(S(=O)(=O)c2ccc(N3C(=O)c4ccc(-c5ccc6c(c5)C(=O)N(*)C6=O)cc4C3=O)cc2)cc1` (repeat unit) gave a glass transition temperature of 340.00 ± 14 °C. With `*Oc1ccc(C(=O)OCCCCCCCOC(=O)c2ccc(OC(=O)c3ccc(C(*)=O)cc3)cc2)cc1` (repeat unit) the glass transition temperature was 70.00 °C. `*Oc1ccc(C(=O)c2ccc(C(=O)c3ccc(*)c(C(C)C)c3)cc2)cc1C` (repeat unit) gave a glass transition temperature of 149.00 °C. In the case of `*Nc1ccc(-c2ccc(NC(=O)c3cccc(C(*)=O)c3)cc2)cc1` (repeat unit), the glass transition temperature is reported as 294.00 °C. With `*CC(*)(C)C(=O)OCCCCCCOc1ccc(OC(=O)c2ccc(OCCCCCC)cc2)cc1` (repeat unit) the glass transition temperature was 16.00 °C. In the case of `*OC(COCCCC)COC(*)=O` (repeat unit), the glass transition temperature is reported as -22.00 °C. In the case of `*CCOCCOC(=O)C(CCC)C(=O)O*` (repeat unit), the glass transition temperature is reported as -38.00 °C. In the case of `*CC(*)c1ccc(C(=O)C(F)(F)F)cc1` (repeat unit), the glass transition temperature is reported as 95.00 °C. `*CCCCCCCCOC(=O)c1ccc(-c2ccc(C(=O)O*)cc2)cc1` (repeat unit) gave a glass transition temperature of 47.00 °C. Compound `*Oc1ccc(C2(c3ccc(OC(*)=O)cc3)CC3CC2C2CCCC32)cc1` (repeat unit) has a glass transition temperature of 251.50 °C. With `*CC1CCC(COC(=O)c2ccc(C(=O)O*)cc2)CC1` (repeat unit) the glass transition temperature was 84.50 °C. `*/C=C/C(*)(C)C` (repeat unit) showed a glass transition temperature of -9.00 °C. Compound `*CCCC1(CCCNC(=O)c2cccc(C(=O)N*)c2)c2ccccc2-c2ccccc21` (repeat unit) has a glass transition temperature of 175.00 °C. Compound `*C(=O)Nc1ccc(S(=O)(=O)c2ccc(N3C(=O)CC(N4C(=O)c5ccc(*)cc5C4=O)C3=O)cc2)cc1` (repeat unit) has a glass transition temperature of 145.00 °C. With `*CC(*)c1ccc(B(Oc2cccc3cccnc23)c2ccc(C(C)(C)C)cc2)cc1` (repeat unit) the glass transition temperature was 240.00 °C. `*CC(*)(C)C(=O)OCCCCCCOc1ccc(C(=O)Oc2ccc(C#N)cc2)cc1` (repeat unit) showed a glass transition temperature of 43.00 °C. With `*Oc1ccc(C2(c3ccc(OC(*)=O)cc3)CC3CC2C2C4CCC(C4)C32)cc1` (repeat unit) the glass transition temperature was 267.50 °C. In the case of `*C/C=C/COC(=O)C(Cc1ccccc1)NC(=O)CCCCCCCCC(=O)NC(Cc1ccccc1)C(=O)O*` (repeat unit), the glass transition temperature is reported as 46.00 °C. Work on `*Oc1ccc(C(=O)O)c(C(=O)Nc2ccc(NC(=O)c3cc(*)ccc3C(=O)O)cc2)c1` (repeat unit) yielded a glass transition temperature of 166.30 °C. For `*CC(c1ccccc1)C1C(=O)OC(=O)C1*` (repeat unit), the glass transition temperature was 212.00 °C. With `*Oc1ccc(S(=O)(=O)c2ccc(Oc3ccc(C(c4ccc(*)cc4)(C(F)(F)F)C(F)(F)F)cc3)cc2[Si](C)(C)C)c([Si](C)(C)C)c1` (repeat unit) the glass transition temperature was 172.00 °C. For `*C1CCCC(S(*)(=O)=O)C1` (repeat unit), the glass transition temperature was 108.00 °C. In the case of `*C(=O)c1ccc2c(c1)C(=O)N(c1ccc(CP(=O)(OCC)OCC)c(N3C(=O)c4ccc(*)cc4C3=O)c1)C2=O` (repeat unit), the glass transition temperature is reported as 218.00 °C. Compound `*Oc1ccc(Oc2ccc(C(=O)Nc3ccc(Oc4ccc(-c5ccc(Oc6ccc(NC(=O)c7ccc(*)cc7)cc6)cc5)cc4)cc3)cc2)cc1-c1ccccc1` (repeat unit) has a glass transition temperature of 232.00 °C. Compound `*OP(=O)(Oc1ccc(Br)cc1)Oc1c(C)cc(S(=O)(=O)c2cc(C)c(*)c(C)c2)cc1C` (repeat unit) has a glass transition temperature of 162.00 °C. For `*CC(*)(C)C(=O)OCCCCc1ccc(/N=N/c2ccc(OC(F)(F)F)cc2)cc1` (repeat unit), the glass transition temperature was 203.50 °C. In the case of `*Oc1ccc(CC(C#N)(C#N)Cc2ccc(*)cc2)cc1` (repeat unit), the glass transition temperature is reported as 147.00 °C. Work on `*c1ccc(-c2ccc3c(c2)C(CCCCCCC#N)(CCCCCCC#N)c2cc(*)ccc2-3)cc1` (repeat unit) yielded a glass transition temperature of 90.00 °C. `*c1ccc(Oc2ccc(-c3ccc(Oc4ccc(N5C(=O)c6ccc(Oc7ccc8cc(Oc9ccc%10c(c9)C(=O)N(*)C%10=O)ccc8c7)cc6C5=O)cc4)cc3)cc2)cc1` (repeat unit) gave a glass transition temperature of 230.00 °C. `*CCCCCCOC(=O)OCCCCCCOC(=O)OCCCCCCN1C(=O)c2ccc(C(=O)c3ccc4c(c3)C(=O)N(*)C4=O)cc2C1=O` (repeat unit) showed a glass transition temperature of 40.00 °C. Work on `*CC(=O)NCCCCCCNC(=O)COC(=O)CCCCCCCCCCC(=O)O*` (repeat unit) yielded a glass transition temperature of 0.90 °C. With `*c1c(C)cc(C)c(N2C(=O)c3ccc(S(=O)(=O)c4ccc5c(c4)C(=O)N(*)C5=O)cc3C2=O)c1C` (repeat unit) the glass transition temperature was 418.00 °C. With `*Oc1ccc(C(=O)c2cccc(C(=O)c3ccc(*)c(C(C)C)c3)c2)cc1C` (repeat unit) the glass transition temperature was 147.00 °C. `*/C=C/CCCCCCCCCC*` (repeat unit) showed a glass transition temperature of -53.00 °C. Work on `*C(=O)Nc1ccc(Oc2cccc(Oc3ccc(NC(=O)c4ccc5c(c4)C(=O)N(c4ccc(Sc6ccc(Oc7ccc(Sc8ccc(N9C(=O)c%10ccc(*)cc%10C9=O)cc8)cc7)cc6)cc4)C5=O)cc3)c2)cc1` (repeat unit) yielded a glass transition temperature of 179.00 °C. `*OP(=O)(Oc1ccc(*)cc1)OC1CCCCC1` (repeat unit) showed a glass transition temperature of 108.00 °C. Compound `*C(=O)c1ccc2c(c1)C(=O)N(c1cc(OCCCCCCCCCCCC)cc(N3C(=O)c4ccc(*)cc4C3=O)c1)C2=O` (repeat unit) has a glass transition temperature of 182.00 °C. `*C(=O)Oc1ccc(OCCCCCCCCCCCCOc2ccc(OC(=O)c3ccc4c(c3)C(=O)N(c3ccc(S(=O)(=O)c5ccc(N6C(=O)c7ccc(*)cc7C6=O)cc5)cc3)C4=O)cc2)cc1` (repeat unit) showed a glass transition temperature of 140.00 °C. For `*CC1CCC(CNC(=O)c2cccc(C(=O)N*)c2)CC1` (repeat unit), the glass transition temperature was 208.00 °C. For `*c1ccc(Oc2ccc(S(=O)(=O)c3ccc(Oc4ccc(N5C(=O)c6ccc(Oc7cccc(Oc8ccc9c(c8)C(=O)N(*)C9=O)c7)cc6C5=O)cc4)cc3)cc2)cc1` (repeat unit), the glass transition temperature was 201.00 °C. In the case of `*Oc1ccc(Oc2ccc(C(=O)c3ccc(NC(=O)c4ccc(C(=O)Nc5ccc(C(=O)c6ccc(*)cc6)cc5)cc4)cc3)cc2)cc1` (repeat unit), the glass transition temperature is reported as 224.00 °C. For `*c1ccc(C(c2ccccc2)(c2ccc(-n3c(=O)c4cc5c(=O)n(*)c(=O)c5cc4c3=O)cc2)C(F)(F)F)cc1` (repeat unit), the glass transition temperature was 436.00 °C.

Source: the PolyMetriX glass transition set
